Results taken from US7977064B2, “Disheveled PDZ modulators” (Genentech, Inc., priority 2006, dated 2011).
Entries after “also recorded” stand apart in the source; their conditions may differ. No end group written: not given here.

Experiments:
Dvl2 = biological target: T1, Dvl2 (Homo sapiens, UniProt O14641); assay: GST pull-down from HEK293S cell extract, blot with anti-Dvl2; format: binding; settings: HEK293 cell lysate, glutathione Sepharose-4B beads
T1 construct: All three endogenous Dvl could be detected in crude cell lysate of HEK293, and could be pulled down by GST-Dvlpep; endogenous in cells; host or cells: HEK293S
T1 sequence (O14641 1-736): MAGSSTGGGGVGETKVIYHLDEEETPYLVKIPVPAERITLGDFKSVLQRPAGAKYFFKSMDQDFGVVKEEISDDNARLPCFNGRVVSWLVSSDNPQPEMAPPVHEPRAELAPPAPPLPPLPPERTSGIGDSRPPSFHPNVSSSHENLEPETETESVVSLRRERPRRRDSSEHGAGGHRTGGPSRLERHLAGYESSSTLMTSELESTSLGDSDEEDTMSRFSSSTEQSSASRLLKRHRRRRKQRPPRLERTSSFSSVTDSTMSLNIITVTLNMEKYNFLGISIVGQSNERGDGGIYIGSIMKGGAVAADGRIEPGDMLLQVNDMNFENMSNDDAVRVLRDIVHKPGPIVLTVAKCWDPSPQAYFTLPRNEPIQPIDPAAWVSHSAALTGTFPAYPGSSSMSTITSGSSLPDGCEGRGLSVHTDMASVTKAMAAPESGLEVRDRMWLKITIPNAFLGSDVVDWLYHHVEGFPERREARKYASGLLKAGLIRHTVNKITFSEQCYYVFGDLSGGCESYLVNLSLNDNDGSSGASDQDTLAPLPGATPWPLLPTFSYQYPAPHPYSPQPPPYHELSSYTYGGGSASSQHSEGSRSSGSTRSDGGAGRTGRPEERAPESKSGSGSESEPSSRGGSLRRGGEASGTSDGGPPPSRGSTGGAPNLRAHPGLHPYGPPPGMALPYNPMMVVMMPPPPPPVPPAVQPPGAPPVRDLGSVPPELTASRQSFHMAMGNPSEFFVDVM
Experimental: (§1) Cell lysate of HEK293S cell was prepared and the whole protein concentration was normalized to 1 mg/ml. GST or GST-DVLpep fusion protein was bound to glutathione Sepharose-4B. Beads carrying protein (2-10 μg) were incubated with cell extract of HEK293S cells overnight at 4° C. The beads were washed with washing buffer (PBS, 0.5% BSA, 0.1% Tween 20) for 10 times and resuspended in SDS sample buffer, incubated at 90° C. for 10 min and the supernatant was subjected to SDS-PAGE. The crude cell extract was also subjected to the same SDS-PAGE. Dvl proteins were blotted by anti-Dvl1, anti-Dvl2, and anti-Dvl3.
(§2) Pull-down Assays—GST or GST-DVLpep fusion protein (GST fused with peptide GGGKWYGWL (SEQ ID NO: 182) at its C-terminus) was bound to glutathione Sepharose-4B following standard protocols, and bound proteins were quantified by SDS-PAGE using known amounts of BSA as standards. Beads carrying protein (2-10 μg) were incubated with cell extract of HEK293S cell overnight at 4° C. The cell extracts were prepared by lysing the cell in SJC lysis buffer. The whole protein concentration was determined by BCA protein kit (Promega; Madison, Wis.) and normalized to 1 mg/ml. […] Bound proteins were blotted by anti-Dvl1, anti-Dvl2 and anti-Dvl3 and analyzed by Li-core™.

Dvl1 = biological target: T2, Dvl1 (Homo sapiens, UniProt O14640); assay: GST pull-down from HEK293S cell extract, blot with anti-Dvl1; format: binding; settings: HEK293 cell lysate, glutathione Sepharose-4B beads
T2 construct: All three endogenous Dvl could be detected in crude cell lysate of HEK293, and could be pulled down by GST-Dvlpep; endogenous in cells; host or cells: HEK293S
T2 sequence (O14640 1-695): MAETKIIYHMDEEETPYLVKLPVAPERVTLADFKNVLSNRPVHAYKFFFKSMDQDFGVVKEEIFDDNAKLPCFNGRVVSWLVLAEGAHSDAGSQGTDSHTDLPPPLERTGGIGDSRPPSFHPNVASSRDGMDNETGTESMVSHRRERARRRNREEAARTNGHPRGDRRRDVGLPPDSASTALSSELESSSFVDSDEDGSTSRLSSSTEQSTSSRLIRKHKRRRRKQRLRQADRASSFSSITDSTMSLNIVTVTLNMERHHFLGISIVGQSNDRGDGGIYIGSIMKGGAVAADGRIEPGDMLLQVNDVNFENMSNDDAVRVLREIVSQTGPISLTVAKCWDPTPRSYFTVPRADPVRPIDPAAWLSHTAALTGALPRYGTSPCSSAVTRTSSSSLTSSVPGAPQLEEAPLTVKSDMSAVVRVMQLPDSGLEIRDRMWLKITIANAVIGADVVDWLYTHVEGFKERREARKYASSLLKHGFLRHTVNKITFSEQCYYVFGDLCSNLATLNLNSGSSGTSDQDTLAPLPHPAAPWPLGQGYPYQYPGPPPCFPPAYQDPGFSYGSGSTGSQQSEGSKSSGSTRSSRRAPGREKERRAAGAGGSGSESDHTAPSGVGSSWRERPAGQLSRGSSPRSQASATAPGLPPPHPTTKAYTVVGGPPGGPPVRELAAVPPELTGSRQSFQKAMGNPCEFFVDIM
Experimental: as §1, §2

Dvl3 = biological target: T3, Dvl3 (Homo sapiens, UniProt Q92997); assay: GST pull-down from HEK293S cell extract, blot with anti-Dvl3; format: binding; settings: HEK293 cell lysate, glutathione Sepharose-4B beads
T3 construct: All three endogenous Dvl could be detected in crude cell lysate of HEK293, and could be pulled down by GST-Dvlpep; endogenous in cells; host or cells: HEK293S
T3 sequence (Q92997 1-716): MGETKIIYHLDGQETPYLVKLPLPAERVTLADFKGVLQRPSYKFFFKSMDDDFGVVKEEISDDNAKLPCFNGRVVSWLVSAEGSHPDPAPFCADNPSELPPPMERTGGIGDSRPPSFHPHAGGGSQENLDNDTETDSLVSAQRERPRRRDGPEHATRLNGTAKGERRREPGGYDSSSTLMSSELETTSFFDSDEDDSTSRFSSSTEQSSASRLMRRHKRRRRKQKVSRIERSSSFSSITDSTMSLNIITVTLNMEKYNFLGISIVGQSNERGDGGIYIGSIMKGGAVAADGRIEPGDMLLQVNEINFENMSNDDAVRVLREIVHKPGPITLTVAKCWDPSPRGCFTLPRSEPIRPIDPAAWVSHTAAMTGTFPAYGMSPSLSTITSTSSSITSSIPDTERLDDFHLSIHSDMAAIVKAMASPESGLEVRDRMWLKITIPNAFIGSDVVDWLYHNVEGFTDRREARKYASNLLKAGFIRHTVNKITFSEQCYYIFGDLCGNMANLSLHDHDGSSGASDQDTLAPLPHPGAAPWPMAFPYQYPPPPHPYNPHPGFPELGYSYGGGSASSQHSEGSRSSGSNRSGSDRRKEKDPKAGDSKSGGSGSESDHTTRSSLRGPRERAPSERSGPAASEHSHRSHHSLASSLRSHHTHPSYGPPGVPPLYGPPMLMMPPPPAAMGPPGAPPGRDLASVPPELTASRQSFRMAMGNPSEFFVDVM
Experimental: as §1, §2

[1] = test system: Wnt-stimulated β-catenin signaling in NCI-H1703 cells; assay: TOPGLOW luciferase reporter assay in NCI-H1703 cells; format: cell-based, human
Experimental: (§3) NCI-H1703 cells were transfected with the reporter plasmid pTOPGLOW combined with pRL reporter. Cell extract was prepared and the luciferase activity was measured. The relative luciferase unit is TopGlow luciferase activity divided by Renila luciferase activity. The fold of activation is the RLU ratio between the Wnt3a-stimulated or non-stimulated cells.
(§4) Cell culture, transfection and peptide treatment: HEK293 and H1703 were propagated according to the instructions from American Type Culture Collection. HEK293 cells were transfected with FuGene6 according to the manufacturer's instructions (Roche Molecular Biochemicals) at cell confluence of 50%. H1703 cells were transfected with Lipofectamine according to manufacturer's instruction at cell confluence of 80%. Cells were treated with medium containing peptide (5 μM-40 μM) 24 hours after transfection, and were routinely harvested 24 hours after the peptide treatment for additional assays.
(§5) TOPGLOW assay: Cells were plated in 12-well plates. The TOPGLOW reporter plasmid was transfected transiently into cells as described above. TCF-mediated gene transcription was determined by pTOPGLOW luciferase activity, which was normalized to relative luciferase activities of pRL reporter (cotransfected internal control). All experiments were performed duplicated.

[2] = test system: β-catenin protein level in HEK293S cells; assay: Western blot of β-catenin protein level in HEK293S cells; format: cell-based; settings: 20 μM peptide, 24 hours, compared to DMSO and PEN
Experimental: HEK293S cells were treated with 20 μM DVLp and PEN for 24 hours. Cell lysate was prepared and subjected to SDS-PAGE. β-catenin was blotted by poly-clonal anti-β-catenin (Genentech, Inc., South San Francisco).
as §4
Western Blot: Harvested cells were lysed with SIC lysis buffer, the supernatant was subjected to SDS-PAGE, which was transferred, blocked and blotted with proper primary antibody by a standard western blot protocol. Fluorescence labeled secondary antibodies (Alexa goat anti-mouse or anti-rabbit) were added and the results were analyzed by Li-core™.

NCI-H1703 cells = assay: Alamar Blue cell viability and growth assay; format: cell-based, human
Experimental: Cells were seeded in black wall 96-well plate in triplicate and treated with various doses of peptide on Day 0 and were incubated at 37° C. in a humid incubator with 5% CO2. After 72 hours, Alamar Blue assay was performed.
Cells were seeded in black wall 96-well plate in triplicate and treated with 10 μM peptide or DMSO on Day 0, and the cell viability was measured by Alamar Blue assay after 24, 48 and 72 hours.
Cell viability assay: Cells were seeded in black wall 96-well plate in triplicate and treated with various doses of peptide on Day 0 and were incubated at 37° C. in a humid incubator with 5% CO2. After 72 hours, Alamar Blue assay was performed according to the instruction from manufacturer. For cell growth profile, the cells were seeded in black wall 96-well plate in triplicate and treated with 10 μM peptide or DMSO on Day 0, and cell viability was measured by Alamar Blue assay after 24, 48 and 72 hours.

[3] = test system: Wnt3a-stimulated β-catenin signaling in HEK293S cells; assay: TOPGLOW luciferase reporter assay in HEK293S cells; format: cell-based
Experimental: as §3, with “HEK293S cells” for “NCI-H1703 cells”, “unit (RLU)” for “unit”, “Wnt3a-stimulated and” for “Wnt3a-stimulated or”, “cells. Cells were treated with either 10 μM (light bar) or 20 μM (dark bar) peptide ligands.” for “cells.”
as §4, §5

Row | Pull-down of endogenous Dvl2 (Dvl2) | Pull-down of endogenous Dvl1 (Dvl1) | Pull-down of endogenous Dvl3 (Dvl3) | Substance | Effect on Wnt-stimulated β-catenin signaling / Tcf-stimulated transcriptional activity (TopGlow) [1] | β-catenin level in whole cell lysate upon Wnt3a stimulation [2] | Cell growth profile (NCI-H1703 cells; NCI-H1703, 10 μM peptide, 24, 48 and 72 hours) | Cell viability with Wnt3a stimulation (NCI-H1703 cells; NCI-H1703, 72 hours, peptide dose of 5 μM) | Cell viability without Wnt3a stimulation (NCI-H1703 cells; NCI-H1703, 72 hours, peptide dose over 10 μM) | Effect on Wnt3a-stimulated transcriptional activity (TopGlow) ([3]; HEK293S cells, peptide up to 20 μM in medium) | Dose dependence of inhibition of Wnt-stimulated β-catenin signaling ([3]; HEK293S cells, two independent experiments) | Inhibition of Wnt3a-stimulated transcriptional activity ([3]; HEK293 cells, peptide 5-20 μM)
1 | pulled down | pulled down | pulled down | GST-Dvlpep: GST fused with peptide GGGKWYGWL (SEQ ID NO: 182) at its C-terminus ({GST}-GGGKWYGWL) |  |  |  |  |  |  |  | 
2 |  |  |  | Ac-RQIKIWFQNRRMKWKKKWYGWL [DVLp_C] | inhibited by DVLp_C treatment significantly; also recorded: blocked the Wnt-stimulated increase in β-catenin signaling | significantly lower β-catenin levels; also recorded: reduced the Wnt-stimulated increase in β-catenin protein level | much slower than that of DMSO or PEN-treated cells; also recorded: effectively suppressed the cell growth | lower viability of DVLp_C-treated cells compared to PEN-treated cells | much lower viability than PEN-treated cells | inhibited Wnt3a-stimulated transcriptional activity significantly; also recorded: significantly blocked the Wnt-stimulated increase in β-catenin signaling | dose-dependent | about 50%
